Measurements taken from BigSolDB 2.1.

CN(C)[C@@H]1C(=O)C(C(N)=O)=C(O)[C@@]2(O)C(=O)C3=C(O)c4c(O)cccc4C[C@H]3C[C@@H]12
solubility (mole fraction)
Settings | 278.15 K | 283.15 K | 288.15 K | 293.15 K | 298.15 K | 303.15 K | 308.15 K | 313.15 K | 318.15 K
in 1,4-dioxane | – | – | 0.00134 | 0.00159 | 0.00188 | 0.0022 | 0.00255 | 0.00294 | 0.00336
in acetonitrile | 0.000118 | 0.00013 | 0.000143 | 0.000156 | 0.000171 | 0.000188 | 0.000206 | 0.000226 | 0.000248
in cyclohexane | 7.64e-06 | 1.05e-05 | 1.42e-05 | 1.93e-05 | 2.47e-05 | 3.03e-05 | 3.85e-05 | 4.74e-05 | 5.7e-05
in ethanol | 0.000131 | 0.000144 | 0.000158 | 0.000172 | 0.000188 | 0.000207 | 0.000225 | 0.000244 | 0.000264
in ethyl acetate | 0.00032 | 0.000392 | 0.000464 | 0.000551 | 0.000649 | 0.000761 | 0.000882 | 0.00103 | 0.00119
in isobutanol | 3.76e-05 | 4.32e-05 | 4.9e-05 | 5.53e-05 | 6.3e-05 | 7.17e-05 | 8.14e-05 | 9.21e-05 | 0.000103
in isopropanol | 4.02e-05 | 4.65e-05 | 5.37e-05 | 6.18e-05 | 7.05e-05 | 8.05e-05 | 9.19e-05 | 0.000105 | 0.000118
in methanol | 0.000166 | 0.000183 | 0.0002 | 0.000218 | 0.000237 | 0.000258 | 0.000282 | 0.000306 | 0.000332
in n-butanol | 4.76e-05 | 5.56e-05 | 6.47e-05 | 7.34e-05 | 8.37e-05 | 9.51e-05 | 0.000107 | 0.000121 | 0.000135
in n-hexane | 3.64e-05 | 4.07e-05 | 4.51e-05 | 5.06e-05 | 5.66e-05 | 6.34e-05 | 7.17e-05 | 8.08e-05 | 8.98e-05
in n-octanol | 3.16e-05 | 3.56e-05 | 3.99e-05 | 4.48e-05 | 5.08e-05 | 5.71e-05 | 6.47e-05 | 7.21e-05 | 8.04e-05
in n-propanol | 0.000101 | 0.000106 | 0.000112 | 0.00012 | 0.000128 | 0.000136 | 0.000145 | 0.000155 | 0.000166
